Reference: patent US9827189B2, “Stable parenteral DNJ compositions” (AMICUS THERAPEUTICS, INC., priority 2013, dated 2017)
Counter-ions that a name gives are not always drawn.

Legend:
[1] = Osmolality of 1-DNJ-HCl in sodium citrate buffer by freezing point; format: physicochemical
Method: The molallity of 1-deoxynojirimycin chloride (1-DNJ-HCl) was determined by freezing point depreciation. 1-deoxynojirimycin chloride concentration ranged from 30 mg/mL to 60 mg/mL. Sodium citrate concentration ranged from 20 to 50 mM.

[2] = system: human whole blood; test: Hemolytic potential in human whole blood; format: cell-based; details: 37 ° C. 30 minutes
Method: (§1) 1-DNJ-HCl was dissolved in sodium citrate buffer. 1-DNJ-HCl concentration was 30 mg/mL (resulting free 1-DNJ concentration was 25 mg/mL); sodium citrate buffer concentration was 50 mM at pH 5.0. 1-DNJ-HCl formulation was added to whole blood samples of male human, rat, and cynomolgus monkey. […]. Buffer served as a negative control, while Triton-X 100 (Lysing agent) served as a positive control. Additionally blood sample without any additions was used as a negative control. The samples were stored at 4° C. Blood samples were incubated at 37 ° C. for 30 minutes with the 1-DNJ-HCl formulation, after which the samples were centrifuged. The amount of hemoglobin in the supernatant from each centrifuged sample was measured using a commercially available hemoglobin assay kit (BioAssay Systems, QuantiChrom™ Hemoglobin Assay Kit) and the Tecan microplate reader.

[3] = system: cynomolgus monkey whole blood; test: Hemolytic potential in cynomolgus monkey whole blood; format: cell-based; details: 37 ° C. 30 minutes
Method: as §1

[4] = 500 μL blood mixed with 500 μL sample (30 mg/mL AT2220 or 0.1% Triton X-100)
[5] = 500 μL blood mixed with 500 μL sample, 30 mg/mL AT2220 dilution 1, 0.1% Triton X-100 dilution 100

## OC[C@H]1NC[C@H](O)[C@@H](O)[C@@H]1O [1-DNJ-HCl, 1-deoxynojirimycin hydrochloride]
[1]; 1-DNJ-HCl 30 mg/mL, Sodium Citrate Buffer 20 mM
  Osmolality: 311 mOsm/kg
[1]; 1-DNJ-HCl 30 mg/mL, Sodium Citrate Buffer 25 mM
  Osmolality: 327 mOsm/kg
[1]; 1-DNJ-HCl 30 mg/mL, Sodium Citrate Buffer 30 mM
  Osmolality: 343 mOsm/kg
[1]; 1-DNJ-HCl 30 mg/mL, Sodium Citrate Buffer 35 mM
  Osmolality: 358 mOsm/kg
[1]; 1-DNJ-HCl 30 mg/mL, Sodium Citrate Buffer 40 mM
  Osmolality: 374 mOsm/kg
[1]; 1-DNJ-HCl 30 mg/mL, Sodium Citrate Buffer 45 mM
  Osmolality: 389 mOsm/kg
[1]; 1-DNJ-HCl 35 mg/mL, Sodium Citrate Buffer 20 mM
  Osmolality: 353 mOsm/kg
[1]; 1-DNJ-HCl 35 mg/mL, Sodium Citrate Buffer 25 mM
  Osmolality: 369 mOsm/kg
[1]; 1-DNJ-HCl 35 mg/mL, Sodium Citrate Buffer 30 mM
  Osmolality: 384 mOsm/kg
[1]; 1-DNJ-HCl 35 mg/mL, Sodium Citrate Buffer 35 mM
  Osmolality: 400 mOsm/kg
[1]; 1-DNJ-HCl 35 mg/mL, Sodium Citrate Buffer 40 mM
  Osmolality: 415 mOsm/kg
[1]; 1-DNJ-HCl 35 mg/mL, Sodium Citrate Buffer 45 mM
  Osmolality: 431 mOsm/kg
[1]; 1-DNJ-HCl 35 mg/mL, Sodium Citrate Buffer 50 mM
  Osmolality: 447 mOsm/kg
[1]; 1-DNJ-HCl 40 mg/mL, Sodium Citrate Buffer 20 mM
  Osmolality: 394 mOsm/kg
[1]; 1-DNJ-HCl 40 mg/mL, Sodium Citrate Buffer 25 mM
  Osmolality: 410 mOsm/kg
[1]; 1-DNJ-HCl 40 mg/mL, Sodium Citrate Buffer 30 mM
  Osmolality: 426 mOsm/kg
[1]; 1-DNJ-HCl 40 mg/mL, Sodium Citrate Buffer 35 mM
  Osmolality: 441 mOsm/kg
[1]; 1-DNJ-HCl 40 mg/mL, Sodium Citrate Buffer 40 mM
  Osmolality: 457 mOsm/kg
[1]; 1-DNJ-HCl 40 mg/mL, Sodium Citrate Buffer 45 mM
  Osmolality: 472 mOsm/kg
[1]; 1-DNJ-HCl 40 mg/mL, Sodium Citrate Buffer 50 mM
  Osmolality: 488 mOsm/kg
[1]; 1-DNJ-HCl 45 mg/mL, Sodium Citrate Buffer 20 mM
  Osmolality: 436 mOsm/kg
[1]; 1-DNJ-HCl 45 mg/mL, Sodium Citrate Buffer 25 mM
  Osmolality: 452 mOsm/kg
[1]; 1-DNJ-HCl 45 mg/mL, Sodium Citrate Buffer 30 mM
  Osmolality: 467 mOsm/kg
[1]; 1-DNJ-HCl 45 mg/mL, Sodium Citrate Buffer 35 mM
  Osmolality: 483 mOsm/kg
[1]; 1-DNJ-HCl 45 mg/mL, Sodium Citrate Buffer 40 mM
  Osmolality: 498 mOsm/kg
[1]; 1-DNJ-HCl 45 mg/mL, Sodium Citrate Buffer 45 mM
  Osmolality: 514 mOsm/kg
[1]; 1-DNJ-HCl 45 mg/mL, Sodium Citrate Buffer 50 mM
  Osmolality: 530 mOsm/kg
[1]; 1-DNJ-HCl 50 mg/mL, Sodium Citrate Buffer 20 mM
  Osmolality: 477 mOsm/kg
[1]; 1-DNJ-HCl 50 mg/mL, Sodium Citrate Buffer 25 mM
  Osmolality: 493 mOsm/kg
[1]; 1-DNJ-HCl 50 mg/mL, Sodium Citrate Buffer 30 mM
  Osmolality: 509 mOsm/kg
[1]; 1-DNJ-HCl 50 mg/mL, Sodium Citrate Buffer 35 mM
  Osmolality: 524 mOsm/kg
[1]; 1-DNJ-HCl 50 mg/mL, Sodium Citrate Buffer 40 mM
  Osmolality: 540 mOsm/kg
[1]; 1-DNJ-HCl 50 mg/mL, Sodium Citrate Buffer 45 mM
  Osmolality: 555 mOsm/kg
[1]; 1-DNJ-HCl 50 mg/mL, Sodium Citrate Buffer 50 mM
  Osmolality: 571 mOsm/kg
[1]; 1-DNJ-HCl 55 mg/mL, Sodium Citrate Buffer 20 mM
  Osmolality: 519 mOsm/kg
[1]; 1-DNJ-HCl 55 mg/mL, Sodium Citrate Buffer 25 mM
  Osmolality: 535 mOsm/kg
[1]; 1-DNJ-HCl 55 mg/mL, Sodium Citrate Buffer 30 mM
  Osmolality: 550 mOsm/kg
[1]; 1-DNJ-HCl 55 mg/mL, Sodium Citrate Buffer 35 mM
  Osmolality: 566 mOsm/kg
[1]; 1-DNJ-HCl 55 mg/mL, Sodium Citrate Buffer 40 mM
  Osmolality: 581 mOsm/kg
[1]; 1-DNJ-HCl 55 mg/mL, Sodium Citrate Buffer 45 mM
  Osmolality: 597 mOsm/kg
[1]; 1-DNJ-HCl 55 mg/mL, Sodium Citrate Buffer 50 mM
  Osmolality: 613 mOsm/kg
[1]; 1-DNJ-HCl 60 mg/mL, Sodium Citrate Buffer 20 mM
  Osmolality: 560 mOsm/kg
[1]; 1-DNJ-HCl 60 mg/mL, Sodium Citrate Buffer 25 mM
  Osmolality: 576 mOsm/kg
[1]; 1-DNJ-HCl 60 mg/mL, Sodium Citrate Buffer 30 mM
  Osmolality: 592 mOsm/kg
[1]; 1-DNJ-HCl 60 mg/mL, Sodium Citrate Buffer 35 mM
  Osmolality: 607 mOsm/kg
[1]; 1-DNJ-HCl 60 mg/mL, Sodium Citrate Buffer 40 mM
  Osmolality: 623 mOsm/kg
[1]; 1-DNJ-HCl 60 mg/mL, Sodium Citrate Buffer 45 mM
  Osmolality: 638 mOsm/kg
[1]; 1-DNJ-HCl 60 mg/mL, Sodium Citrate Buffer 50 mM
  Osmolality: 654 mOsm/kg
[2]; [4]
  % RBC lysis: 0.0%
[2]; [5]
  Avg OD (n = 4): 0.0755
[3]; [4]
  % RBC lysis: 0.1%
[3]; [5]
  Avg OD (n = 4): 0.0649
